Data reported in US20220202712A1, “SELF-EMULSIFYING DRUG DELIVERY SYSTEMS FOR DELIVERY OF LIPOPHILIC COMPOUNDS” (Yissum Research Development Company of the Hebrew …, priority 2019, published 2022).
Read-outs that look alike come from different tables or passages of the source.

What was measured:
[1] = sublingual drops, cited from earlier work
[2] = Pharmacokinetic studies for CBD- and THC-loaded SEDDS based on tributyrin; conditions: oral, 0.125 mg THC/2.5 mg CBD (CBD:THC 20:1)
Experimental: The PK studies were carried out on rats. Three animals were used in each time point. At each test point, animals were sacrificed and blood (5-6 ml) withdrawn from the heart and collected in heparinized tubes.
Each rat was orally administered with 1 mil of the test formulation. Blood samples were withdrawn at different time points: 0, 0.5, 1, 2, 4, 6, 10 and 24 hours. The blood samples were centrifuged at 4000 rpm and the plasma was separated and collected in clean polyethylene tubes and kept at −80° C. until analysis using LC-MS/MS.
TB1 liquid SEDDS formulations were tested: 200 parts tributyrin, 350 parts Cremophor RH40, 350 parts PEG400, 350 parts PG.
The HPLC system consisted of a Dionex/Thermo Scientific UltiMate 3000 UHPLC systems fitted with a 100 μL sample loop, Dionex™ UltiMate™ 3000 Rapid Separation Diode Array Detector, and integration software Chromeleon Chromatography Data System (CDS).
Chromatographic separation was performed with guard column Luna® 5 μm C18(2) 100 Å, LC Column 150×4.6 mm, using an isocratic mobile phase of water (0.1% formic acid): acetonitrile (0.1% formic acid) 10:90 at a flow rate of 1 mL/min for 10 in minisocratic condition. The column temperature was 40° C. and the injection volume was 100 μL.
Dual ion electrospray ionization (DUIS) in positive was used for ionization of the analytes on the ISQ™ EC. […]

Row | SMILES | Cmax ([1]; CBD dose 10 mg) | Tmax ([1]; CBD dose 10 mg) | Cmax ([1]; CBD dose 20 mg) | Tmax ([1]; CBD dose 20 mg) | Tmax ([2]; Table 20, THC, semi-solid SEDDS) | C1/F_obs ([2]; Table 21-2, THC in tributyrin as a carrier (reference))
1 | C=C(C)[C@@H]1CCC(C)=C[C@H]1c1c(O)cc(CCCCC)cc1O [CBD, cannabidiol] | 2.05 ng/mL | 2.17 h | 2.58 ng/mL | 1.67 h | – | –
2 | CCCCCc1cc(O)c2c(c1)OC(C)(C)[C@@H]1CCC(C)=C[C@@H]21 [THC, tetrahydrocannabinol] | – | – | – | – | 2.00 h | 66.835 mL/min/kg
